In ChEMBL document CHEMBL4811261, “Synthesis and biological evaluation of novel benzo[a]pyridazino[3,4-c]phenazine derivatives” (Bioorg Med Chem Lett, 2021):

Tests used:
Pseudomonas aeruginosa = assay: Antibacterial activity against Pseudomonas aeruginosa measured by broth microdilution method; type: functional, organism-based
Bacillus subtilis = assay: Antibacterial activity against Bacillus subtilis measured by broth microdilution method; type: functional, organism-based
[1] = Cytotoxicity against human Lu1 cells assessed as cell viability measured by MTT assay; type: functional, cell-based
KB = assay: Cytotoxicity against human KB cells assessed as cell viability measured by MTT assay; type: functional, cell-based
HEK293 = assay: Cytotoxicity against human HEK293 cells assessed as cell viability measured by MTT assay; type: cell-based
Candida albicans = assay: Antifungal activity against Candida albicans measured by broth microdilution method; type: functional, organism-based
Escherichia = assay: Antibacterial activity against Escherichia measured by broth microdilution method; type: functional, organism-based
[2] = tested on: Limosilactobacillus fermentum; assay: Antibacterial activity against Lactobacillus fermentum measured by broth microdilution method; type: functional, organism-based
Staphylococcus aureus = assay: Antibacterial activity against Staphylococcus aureus measured by broth microdilution method; type: functional, organism-based
Salmonella enterica = assay: Antibacterial activity against Salmonella enterica measured by broth microdilution method; type: functional, organism-based
HepG2 = assay: Cytotoxicity against human HepG2 cells assessed as cell viability measured by MTT assay; type: functional, cell-based
MCF7 = assay: Cytotoxicity against human MCF7 cells assessed as cell viability measured by MTT assay; type: functional, cell-based

| SMILES | IC50 (Pseudomonas aeruginosa) | IC50 (Bacillus subtilis) | IC50 (Candida albicans) | IC50 (Escherichia) | IC50 [2] | IC50 (Staphylococcus aureus) | IC50 (Salmonella enterica) | IC50 [1] | IC50 (KB) | IC50 (HEK293) | IC50 (HepG2) | IC50 (MCF7) |
| --- | --- | --- | --- | --- | --- | --- | --- | --- | --- | --- | --- | --- |
| CN1N=C(c2cccc(Br)c2)C(c2cccc(Br)c2)c2c1c1ccccc1c1nc3ccccc3nc21 (stereo not given) | > 100 µM | 84.6 µM | > 100 µM | > 100 µM | > 100 µM | 84.4 µM | > 100 µM | > 100 µM | > 100 µM | > 100 µM | > 100 µM | > 100 µM |
| CN1N=C(c2ccc3ccccc3c2)C(c2ccc3ccccc3c2)c2c1c1ccccc1c1nc3ccccc3nc21 (stereo not given) | > 100 µM | > 100 µM | > 100 µM | > 100 µM | > 100 µM | > 100 µM | > 100 µM | > 100 µM | > 100 µM | > 100 µM | 81.4 µM | > 100 µM |
| CN1N=C(c2ccc(Cl)cc2)C(c2ccc(Cl)cc2)c2c1c1ccccc1c1nc3ccccc3nc21 (stereo not given) | > 100 µM | > 100 µM | > 100 µM | > 100 µM | > 100 µM | > 100 µM | > 100 µM | > 100 µM | > 100 µM | > 100 µM | > 100 µM | > 100 µM |
| COc1ccc(C2=NN(C)c3c(c4nc5ccccc5nc4c4ccccc34)C2c2ccc(OC)cc2)cc1 (stereo not given) | > 100 µM | > 100 µM | > 100 µM | > 100 µM | > 100 µM | > 100 µM | > 100 µM | 18.2 µM | 16.7 µM | 73.4 µM | 14.6 µM | 21.8 µM |
| Cc1c2ccncc2c(C)c2c1[nH]c1ccccc12 [ELLIPTECINE] | – | – | – | – | – | – | – | 1.83 µM | 1.26 µM | 6.58 µM | 1.34 µM | 2.48 µM |

Continued, in another order:

| IC50 (Pseudomonas aeruginosa) | IC50 (Bacillus subtilis) | IC50 (Candida albicans) | IC50 (Escherichia) | IC50 [2] | IC50 (Staphylococcus aureus) | IC50 (Salmonella enterica) | SMILES | IC50 [1] | IC50 (KB) | IC50 (HEK293) | IC50 (HepG2) | IC50 (MCF7) |
| --- | --- | --- | --- | --- | --- | --- | --- | --- | --- | --- | --- | --- |
| > 100 µM | 90.8 µM | > 100 µM | > 100 µM | > 100 µM | > 100 µM | > 100 µM | COc1cccc(C2=NN(C)c3c(c4nc5ccccc5nc4c4ccccc34)C2c2cccc(OC)c2)c1 (stereo not given) | 56 µM | 64.4 µM | > 100 µM | 36.3 µM | 70.7 µM |
| > 100 µM | > 100 µM | > 100 µM | > 100 µM | > 100 µM | > 100 µM | > 100 µM | CN1N=C(c2ccc(S(C)(=O)=O)cc2)C(c2ccc(S(C)(=O)=O)cc2)c2c1c1ccccc1c1nc3ccccc3nc21 (stereo not given) | > 100 µM | 62.5 µM | > 100 µM | 44.7 µM | 62.7 µM |
| > 100 µM | 77.9 µM | > 100 µM | > 100 µM | > 100 µM | > 100 µM | > 100 µM | CN1N=C(c2ccc([N+](=O)O)cc2)C(c2ccc([N+](=O)[O-])cc2)c2c1c1ccccc1c1nc3ccccc3nc21 (stereo not given) | > 100 µM | > 100 µM | > 100 µM | > 100 µM | > 100 µM |
| > 100 µM | 5.91 µM | > 100 µM | > 100 µM | > 100 µM | 4.21 µM | > 100 µM | CN1N=C(c2ccc(Br)cc2)C(c2ccc(Br)cc2)c2c1c1ccccc1c1nc3ccccc3nc21 (stereo not given) | > 100 µM | > 100 µM | > 100 µM | > 100 µM | > 100 µM |
| > 100 µM | > 100 µM | > 100 µM | > 100 µM | > 100 µM | > 100 µM | > 100 µM | CN1N=C(c2ccccc2)C(c2ccccc2)c2c1c1ccccc1c1nc3ccccc3nc21 (stereo not given) | 18.6 µM | 19.4 µM | > 100 µM | 10.5 µM | 22 µM |
| – | 0.3 µM | – | – | – | 0.02 µM | – | CC1(C)S[C@@H]2[C@H](NC(=O)[C@H](N)c3ccccc3)C(=O)N2[C@H]1C(=O)O [AMPICILLIN] | – | – | – | – | – |
